For orientation: IC50 means the midpoint of a concentration-inhibition curve. High values mean a need for much substance, low ones inhibition by little substance.

Structures are written as SMILES.

Consider 23 molecules from patent US9884063B2, “Amido-substituted azole compounds” (Bayer Pharma Aktiengesellschaft, priority 2014, dated 2018).

The target of one assay is T1, TNKS1 (Homo sapiens, UniProt O95271).
T1 sequence (O95271 1-1327): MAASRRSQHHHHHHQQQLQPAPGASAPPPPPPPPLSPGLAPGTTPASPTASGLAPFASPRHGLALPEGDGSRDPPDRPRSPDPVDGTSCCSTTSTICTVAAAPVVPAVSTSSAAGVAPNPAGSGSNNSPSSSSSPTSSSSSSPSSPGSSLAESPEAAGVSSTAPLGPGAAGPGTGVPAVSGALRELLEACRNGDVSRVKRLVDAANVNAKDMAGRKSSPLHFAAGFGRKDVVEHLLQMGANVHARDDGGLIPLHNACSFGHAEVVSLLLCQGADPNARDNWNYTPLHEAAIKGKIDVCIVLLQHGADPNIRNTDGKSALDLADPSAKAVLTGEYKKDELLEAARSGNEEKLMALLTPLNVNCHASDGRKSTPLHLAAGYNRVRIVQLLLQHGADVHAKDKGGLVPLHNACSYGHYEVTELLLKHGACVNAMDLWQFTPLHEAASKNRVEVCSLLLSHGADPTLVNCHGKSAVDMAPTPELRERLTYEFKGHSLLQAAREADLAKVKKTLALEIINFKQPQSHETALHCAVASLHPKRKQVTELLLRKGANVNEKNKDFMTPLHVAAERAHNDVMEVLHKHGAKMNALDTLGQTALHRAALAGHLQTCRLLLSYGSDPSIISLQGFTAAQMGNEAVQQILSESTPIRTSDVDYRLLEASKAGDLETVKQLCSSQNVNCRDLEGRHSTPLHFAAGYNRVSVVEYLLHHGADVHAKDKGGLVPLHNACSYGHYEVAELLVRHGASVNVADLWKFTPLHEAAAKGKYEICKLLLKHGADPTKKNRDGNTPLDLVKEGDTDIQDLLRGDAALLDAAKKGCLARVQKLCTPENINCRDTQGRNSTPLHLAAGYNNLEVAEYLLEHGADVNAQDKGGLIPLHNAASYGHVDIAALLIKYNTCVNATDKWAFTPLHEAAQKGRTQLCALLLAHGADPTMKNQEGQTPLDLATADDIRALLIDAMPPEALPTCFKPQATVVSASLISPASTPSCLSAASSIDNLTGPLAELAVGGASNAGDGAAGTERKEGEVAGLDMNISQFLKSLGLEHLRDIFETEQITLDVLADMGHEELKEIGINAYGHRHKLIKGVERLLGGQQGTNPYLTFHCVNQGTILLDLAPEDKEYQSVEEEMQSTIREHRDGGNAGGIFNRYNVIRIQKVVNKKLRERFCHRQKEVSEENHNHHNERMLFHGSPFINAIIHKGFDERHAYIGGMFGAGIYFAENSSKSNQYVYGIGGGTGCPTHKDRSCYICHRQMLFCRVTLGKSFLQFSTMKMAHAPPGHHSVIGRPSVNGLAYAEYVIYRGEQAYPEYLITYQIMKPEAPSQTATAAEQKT
Kind of assay: Modified TNKS1 Assay 2 (auto-parsylation, [3H]-NAD+ SPA). Type of assay: biochemical. The note with it: 6 nM TNKS1, 96 well.

Assay [1] has as its system wildtype Wnt signaling cascade. Kind of assay: HEK293 TOP Assay (Super TopFlash luciferase reporter, Wnt-3a stimulated). Type of assay: cell-based. The note with it: Homo sapiens, HEK293, 16 h. The method in brief: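 HEK293 cells stably carrying Super TopFlash (TOP) or FOP reporter, stimulated with recombinant human Wnt-3a (2500–5 ng/ml, two-fold steps). Both lines incubated in parallel with compound from 50 μM to 15 nM (3.16-fold) in CAFTY buffer pH 7.4 with 2 mM Ca2+ and 0.01% BSA; selectivity judged TOP vs FOP.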

[2] abbreviates: HEK293 TOP reporter cell line, Wnt-3a at EC50, 16 hours incubation, compound dilution series 50 μM to 15 nM.

On to `NCCNC(=O)c1[nH]cnc1C(=O)Nc1ccc(NC(=O)c2ccc(F)cc2Cl)cc1` [Example 290, N^5-(2-aminoethyl)-N^4-{4-[(2-chloro-4-fluorobenzoyl)amino]phenyl}-1H-imidazole-4,5-dicarboxamide], for which the half-maximal inhibitory concentration (IC50) is 0.04 µM against TNKS1 and 0.71 µM in assay [1] (setting [2]).

As for `CCNC(=O)c1nc[nH]c1C(=O)Nc1ccc(NC(=O)c2cccc(OC)c2Cl)cc1` [Example 260, N^5-{4-[(2-chloro-3-methoxybenzoyl)amino]phenyl}-N^4-ethyl-1H-imidazole-4,5-dicarboxamide], the half-inhibitory concentration (IC50) was found to be 3 µM at TNKS1 and 2.1 µM in assay [1] (setting [2]).

For the molecule `CCNC(=O)c1nc[nH]c1C(=O)Nc1ccc(NC(=O)c2ncccc2Cl)cc1` [Example 261, N^5-(4-{[(3-chloropyridin-2-yl)carbonyl]amino}phenyl)-N^4-ethyl-1H-imidazole-4,5-dicarboxamide], the IC50 worked out at 0.23 µM at TNKS1 and 22.2 µM in assay [1] (setting [2]).

In the case of `Cc1nc(C(=O)Nc2ccc(NC(=O)c3ccc(F)cc3Cl)cc2)c(C(=O)NCCN2CCCCC2)[nH]1` [Example 67, N^4-{4-[(2-chloro-4-fluorobenzoyl)amino]phenyl}-2-methyl-N^5-[2-(piperidin-1-yl)ethyl]-1H-imidazole-4,5-dicarboxamide], the IC50 against TNKS1 was 0.004 µM; in assay [1] (setting [2]), 0.07 µM.

For `CNC(=O)c1nc[nH]c1C(=O)Nc1ccc(NC(=O)c2c(F)cc(F)cc2F)cc1` [Example 342, N^4-methyl-N^5-{4-[(2,4,6-trifluorobenzoyl)amino]phenyl}-1H-imidazole-4,5-dicarboxamide], the half-maximal inhibitory concentration (IC50) at TNKS1 was determined as 0.64 µM; in assay [1] (setting [2]) it was 0.8 µM.

In the case of `COC(=O)c1nc[nH]c1C(=O)Nc1ccc(NC(=O)c2ccc(F)cc2Cl)c(F)c1` [Example 71, methyl 5-({4-[(2-chloro-4-fluorobenzoyl)amino]-3-fluorophenyl}carbamoyl)-1H-imidazole-4-carboxylate], the IC50 against TNKS1 turned out to be 0.1 µM; in assay [1] (setting [2]), 0.34 µM.

Regarding `CNC(=O)c1nc[nH]c1C(=O)Nc1ccc(NC(=O)c2cc(Cl)ccc2Cl)cc1` [Example 309, N^5-{4-[(2,5-dichlorobenzoyl)amino]phenyl}-N^4-methyl-1H-imidazole-4,5-dicarboxamide], the results for the IC50 (against TNKS1; in assay [1] (setting [2])) were 0.41 µM and 0.24 µM, respectively.

On to `CNC(=O)c1nc[nH]c1C(=O)Nc1ccc(NC(=O)c2c(C)cccc2F)cc1` [Example 375, N^5-{4-[(2-fluoro-6-methylbenzoyl)amino]phenyl}-N^4-methyl-1H-imidazole-4,5-dicarboxamide], for which the IC50 at TNKS1 was 1.2 µM; in assay [1] (setting [2]) it was 1.12 µM.

In the case of `CCN1CCC[C@@H]1CNC(=O)c1nc[nH]c1C(=O)Nc1ccc(NC(=O)c2ccc(F)cc2Cl)cc1` [Example 413, N^5-{4-[(2-chloro-4-fluorobenzoyl)amino]phenyl}-N^4-{[(2R)-1-ethylpyrrolidin-2-yl]methyl}-1H-imidazole-4,5-dicarboxamide], the results for the half-inhibitory concentration (IC50) (against TNKS1; in assay [1] (setting [2])) were 0.08 µM and 0.7 µM, respectively.

Consider `CN(C)CCNC(=O)c1nc[nH]c1C(=O)Nc1ccc(NC(=O)c2ccc(F)cc2Cl)c(F)c1` [Example 73, N^5-{4-[(2-chloro-4-fluorobenzoyl)amino]-3-fluorophenyl}-N^4-[2-(dimethylamino)ethyl]-1H-imidazole-4,5-dicarboxamide], for which the values for the concentration for half-maximal inhibition (IC50) (against TNKS1; in assay [1] (setting [2])) were 0.01 µM and 0.36 µM, respectively.

As for `CNC(=O)c1nc[nH]c1C(=O)Nc1ccc(NC(=O)c2ccc(C)c(Cl)c2)cc1` [Example 344, N^5-{4-[(3-chloro-4-methylbenzoyl)amino]phenyl}-N^4-methyl-1H-imidazole-4,5-dicarboxamide], the IC50 against TNKS1 was above 10 µM; in assay [1] (setting [2]), 27 µM.

Regarding `CNC(=O)c1nc[nH]c1C(=O)Nc1ccc(NC(=O)c2cccc(F)c2Cl)cc1` [Example 370, N^5-{4-[(2-chloro-3-fluorobenzoyl)amino]phenyl}-N^4-methyl-1H-imidazole-4,5-dicarboxamide], the IC50 on TNKS1 was above 10 µM; in assay [1] (setting [2]), 4.95 µM.

Consider `CNC(=O)c1nc[nH]c1C(=O)Nc1ccc(NC(=O)c2nccnc2Cl)cc1` [Example 372, N^5-(4-{[(3-chloropyrazin-2-yl)carbonyl]amino}phenyl)-N^4-methyl-1H-imidazole-4,5-dicarboxamide], for which the half-inhibitory concentration (IC50) amounted to 5.7 µM against TNKS1 and 9.7 µM in assay [1] (setting [2]).

With `CNC(=O)c1nc[nH]c1C(=O)Nc1ccc(NC(=O)c2ccc(Br)cc2Cl)cc1` [Example 334, N^5-{4-[(4-bromo-2-chlorobenzoyl)amino]phenyl}-N^4-methyl-1H-imidazole-4,5-dicarboxamide], the IC50 is 0.06 µM against TNKS1 and 0.86 µM in assay [1] (setting [2]).

In the case of `Cc1cc(NC(=O)c2[nH]cnc2C(=O)NCCN2CCCCC2)ccc1NC(=O)c1ccc(F)cc1Cl` [Example 85, N^5-{4-[(2-chloro-4-fluorobenzoyl)amino]-3-methylphenyl}-N^4-[2-(piperidin-1-yl)ethyl]-1H-imidazole-4,5-dicarboxamide], the IC50 at TNKS1 amounted to 0.009 µM; in assay [1] (setting [2]), 0.16 µM.

Regarding `CN(C)CCNC(=O)c1nc[nH]c1C(=O)Nc1ccc(NC(=O)c2ccc(F)cc2Cl)cc1` [Example 22, N^4-{4-[(2-chloro-4-fluorobenzoyl)amino]phenyl}-N^5-[2-(dimethylamino)ethyl]-1H-imidazole-4,5-dicarboxamide], the half-maximal inhibitory concentration (IC50) turned out to be 0.01 µM against TNKS1; 0.14 µM in assay [1] (setting [2]); 0.13 µM in assay [1] (HEK293 TOP reporter cells, Wnt3a at EC50, 16 hours, luciferase).

Turning to `CNC(=O)c1nc[nH]c1C(=O)Nc1ccc(NC(=O)c2ccc(Cl)cc2F)cc1` [Example 333, N^5-{4-[(4-chloro-2-fluorobenzoyl)amino]phenyl}-N^4-methyl-1H-imidazole-4,5-dicarboxamide], the IC50 on TNKS1 was 0.96 µM; in assay [1] (setting [2]), 0.95 µM.

Take `CNC(=O)c1nc[nH]c1C(=O)Nc1ccc(NC(=O)c2ccccc2OC)cc1` [Example 60, N^5-{4-[(2-methoxybenzoyl)amino]phenyl}-N^4-methyl-1H-imidazole-4,5-dicarboxamide]: the IC50 against TNKS1 was above 10 µM; in assay [1] (setting [2]), 15.5 µM.

As to `CNC(=O)c1nc[nH]c1C(=O)Nc1ccc(NC(=O)c2cc(F)ccc2Cl)cc1` [Example 361, N^5-{4-[(2-chloro-5-fluorobenzoyl)amino]phenyl}-N^4-methyl-1H-imidazole-4,5-dicarboxamide], the IC50 came to 0.14 µM against TNKS1 and 0.26 µM in assay [1] (setting [2]).

As to `O=C(Nc1ccc(NC(=O)c2[nH]cnc2C(=O)NCCc2ccccn2)cc1)c1ccc(F)cc1Cl` [Example 387, N^5-{4-[(2-chloro-4-fluorobenzoyl)amino]phenyl}-N^4-[2-(pyridin-2-yl)ethyl]-1H-imidazole-4,5-dicarboxamide], the results for the IC50 (against TNKS1; in assay [1] (setting [2])) were 0.1 µM and 0.8 µM, respectively.

`CNC(=O)c1nc[nH]c1C(=O)Nc1ccc(NC(=O)c2ccccc2Cl)c(F)c1` [Example 80, N^5-{4-[(2-chlorobenzoyl)amino]-3-fluorophenyl}-N^4-methyl-1H-imidazole-4,5-dicarboxamide]: the concentration for half-maximal inhibition (IC50) on TNKS1 is 0.69 µM; in assay [1] (setting [2]), 0.82 µM.

Consider `CNC(=O)c1nc[nH]c1C(=O)Nc1ccc(NC(=O)c2ncccc2C)cc1` [Example 356, N^4-methyl-N^5-(4-{[(3-methylpyridin-2-yl)carbonyl]amino}phenyl)-1H-imidazole-4,5-dicarboxamide], for which the IC50 at TNKS1 is 2 µM; in assay [1] (setting [2]), 0.72 µM.

As for `Cc1cc(NC(=O)c2[nH]cnc2C(=O)NCCN(C)C)ccc1NC(=O)c1ccc(F)cc1Cl` [Example 84, N^5-{4-[(2-chloro-4-fluorobenzoyl)amino]-3-methylphenyl}-N^4-[2-(dimethylamino)ethyl]-1H-imidazole-4,5-dicarboxamide], the half-inhibitory concentration (IC50) against TNKS1 was found to be 0.17 µM; in assay [1] (setting [2]), 0.62 µM.
